Experimental data reported in patent US20160362408A1 (Bayer Pharma Aktiengesellschaft, priority 2013, published 2016).
Structures can show the parent of a compound that is named as a salt.

target: T1, recombinant guanylate cyclase reporter cell line (Rattus norvegicus, UniProt P19686+P20595); assay: Effect on a recombinant guanylate cyclase reporter cell line; format: cell-based; conditions: MEC = minimum effective concentration; in some cases mean values for individual determinations
T1 construct: expressed in transfected cells
T1 sequence (P19686 1-690): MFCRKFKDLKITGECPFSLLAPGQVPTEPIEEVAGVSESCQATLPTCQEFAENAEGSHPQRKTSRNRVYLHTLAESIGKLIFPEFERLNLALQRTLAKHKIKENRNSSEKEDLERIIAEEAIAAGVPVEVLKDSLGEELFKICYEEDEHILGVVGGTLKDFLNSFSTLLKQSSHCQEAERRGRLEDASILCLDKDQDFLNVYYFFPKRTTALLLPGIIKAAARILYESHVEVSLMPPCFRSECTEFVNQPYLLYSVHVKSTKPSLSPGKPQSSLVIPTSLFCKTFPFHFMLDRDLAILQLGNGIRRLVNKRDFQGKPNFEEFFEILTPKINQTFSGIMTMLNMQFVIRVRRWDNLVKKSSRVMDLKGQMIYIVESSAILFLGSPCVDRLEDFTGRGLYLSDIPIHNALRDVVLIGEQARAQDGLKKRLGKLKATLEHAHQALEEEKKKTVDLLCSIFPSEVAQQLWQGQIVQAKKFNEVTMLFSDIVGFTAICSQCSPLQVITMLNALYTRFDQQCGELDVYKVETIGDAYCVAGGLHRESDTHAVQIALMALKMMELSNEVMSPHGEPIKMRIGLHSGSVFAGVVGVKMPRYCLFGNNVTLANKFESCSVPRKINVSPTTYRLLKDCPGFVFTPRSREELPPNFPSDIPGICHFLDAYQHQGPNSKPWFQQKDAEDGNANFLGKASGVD
T1 sequence (P20595 1-619): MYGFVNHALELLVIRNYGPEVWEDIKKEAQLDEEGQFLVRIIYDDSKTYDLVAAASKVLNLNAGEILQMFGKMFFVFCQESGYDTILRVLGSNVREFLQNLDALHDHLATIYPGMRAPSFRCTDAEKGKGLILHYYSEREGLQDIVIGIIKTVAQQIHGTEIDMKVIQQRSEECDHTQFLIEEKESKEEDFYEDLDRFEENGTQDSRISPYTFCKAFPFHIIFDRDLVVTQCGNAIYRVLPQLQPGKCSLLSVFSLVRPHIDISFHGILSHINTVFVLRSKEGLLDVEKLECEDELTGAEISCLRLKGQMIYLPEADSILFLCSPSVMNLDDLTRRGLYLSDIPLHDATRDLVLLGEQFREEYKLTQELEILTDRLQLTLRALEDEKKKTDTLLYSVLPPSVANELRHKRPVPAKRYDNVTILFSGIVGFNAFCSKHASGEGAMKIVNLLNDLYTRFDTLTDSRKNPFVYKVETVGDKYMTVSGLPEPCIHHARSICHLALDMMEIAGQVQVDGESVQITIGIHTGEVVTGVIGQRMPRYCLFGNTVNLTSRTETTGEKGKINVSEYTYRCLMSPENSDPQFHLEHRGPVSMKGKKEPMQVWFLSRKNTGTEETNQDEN
Method: B-2. Effect on a Recombinant Guanylate Cyclase Reporter Cell Line
The cellular action of the compounds of the invention is determined using a recombinant guanylate cyclase reporter cell line, as described in F. Wunder et al., Anal. Biochem. 339, 104-112 (2005).
Representative MEC values (MEC=minimum effective concentration) for the compounds of the invention are shown in the table below (in some cases as mean values for individual determinations): […]

| MEC | Structure (SMILES) |
| --- | --- |
| 10 µM | O=C(Nc1cnn(CCO)c1)c1c(C2CC2)nc2c(OCc3c(F)cccc3F)cccn12 [Example 142, 2-Cyclopropyl-8-[(2,6-difluorobenzyl)oxy]-N-[1-(2-hydroxyethyl)-1H-pyrazol-4-yl]imidazo[1,2-a]pyridine-3-carboxamide] |
| 0.3 µM | Cc1cc(OCc2c(F)cccc2F)c2nc(C)c(C(=O)Nc3ccc(F)cc3CN)n2c1 [Example 113, N-[2-(Aminomethyl)-4-fluorophenyl]-8-[(2,6-difluorobenzyl)oxy]-2,6-dimethylimidazo[1,2-a]pyridine-3-carboxamide] |
| 1.0 µM | COCCn1cc(NC(=O)c2c(C)nc3c(OCc4c(F)cccc4F)cccn23)cn1 [Example 26, 8-[(2,6-difluorobenzyl)oxy]-N-[1-(2-methoxyethyl)-1H-pyrazol-4-yl]-2-methylimidazo[1,2-a]pyridine-3-carboxamide] |
| 10 µM | Cc1nc2c(OCc3c(F)cccc3F)cccn2c1C(=O)Nc1cnn(CCN2CCN(C)CC2)c1 [Example 133, 8-[(2,6-difluorobenzyl)oxy]-2-methyl-N-{1-[2-(4-methylpiperazin-1-yl)ethyl]-1H-pyrazol-4-yl)imidazo [1,2-a]pyridine-3-carboxamide] |
| 1.0 µM | Cc1cc(OCCC(C(F)(F)F)C(F)(F)F)c2nc(C)c(C(=O)Nc3c(C)nn(Cc4ccccc4F)c3C)n2c1 [Example 148] |
| 0.55 µM | Cc1cc(NC(=O)c2c(C)nc3c(OCc4c(F)cccc4F)cccn23)c2ccccc2n1 [Example 69] |
| 0.1 µM | Cc1nc2c(OCc3c(F)cccc3F)cccn2c1C(=O)Nc1ccnc2ccc(C(F)(F)F)cc12 [Example 79] |
| 1.0 µM | Cc1nc2c(OCc3c(F)cccc3F)cc(Cl)cn2c1C(=O)Nc1cnn(CC(F)(F)F)c1 [Example 44, 6-chloro-8-[(2,6-difluorobenzyl)oxy]-2-methyl-N-[1-(2,2,2-trifluoroethyl)-1H-pyrazol-4-yl]imidazo[1,2-a]pyridine-3-carboxamide] |
| 1.0 µM | Cc1nc2c(OCc3c(F)cccc3F)cccn2c1C(=O)Nc1cnn(CCN2CCC(F)(F)CC2)c1 [Example 127, 8-[(2,6-Difluorobenzyl)oxy]-N-{1-[2-(4,4-difluoropiperidin-1-yl)ethyl]-1H-pyrazol-4-yl}-2-methylimidazo[1,2-a]pyridine-3-carboxamide] |
| 0.3 µM | Cc1nc2c(OCc3c(F)cccc3F)cccn2c1C(=O)Nc1ccc(C)c2ncccc12 [Example 72] |
| 0.3 µM | Cc1nc2c(OCc3c(F)cccc3F)cccn2c1C(=O)Nc1cnn(COCC(F)(F)F)c1 [Example 90] |
| 0.1 µM | Cc1cc(OCc2c(F)cccc2F)c2nc(C)c(C(=O)Nc3cnn(COCC(F)(F)F)c3)n2c1 [Example 89] |
| 0.1 µM | Cc1nc2c(OCc3c(F)cccc3F)cc(Cl)cn2c1C(=O)Nc1c(C(F)(F)F)nn(CCO)c1C [Example 117, 6-chloro-8-[(2,6-difluorobenzyl)oxy]-N-[1-(2-hydroxyethyl)-5-methyl-3-(trifluoromethyl)-1H-pyrazol-4-yl]-2-methylimidazo[1,2-a]pyridine-3-carboxamide] |
| 1.0 µM | Cc1nc2c(OCc3c(F)cccc3F)cccn2c1C(=O)Nc1cn(C)nc1CO [Example 81] |
| 0.3 µM | COc1cccc(NC(=O)c2c(C)nc3c(OCc4c(F)cccc4F)cccn23)c1 [Example 13] |
| 1.0 µM | Cc1nc2c(OCc3c(F)cccc3F)cccn2c1C(=O)Nc1ccc(N2CCN(C)CC2)c(C(F)(F)F)c1 [Example 97] |
| 0.01 µM | Cc1cc(OCc2c(F)cccc2F)c2nc(C)c(C(=O)Nc3ccnc4ccc(F)cc34)n2c1 [Example 91, 8-[(2,6-Difluorobenzyl)oxy]-N-(6-fluoroquinolin-4-yl)-2,6-dimethylimidazo[1,2-a]pyridine-3-carboxamide] |

| MEC | Structure (SMILES) |
| --- | --- |
| 0.65 µM | Cc1cc(OCc2c(F)cccc2F)c2nc(C)c(C(=O)Nc3c(C)n[nH]c3C)n2c1 [Example 52, 8-[(2,6-difluorobenzyl)oxy]-N-(3,5-dimethyl-1H-pyrazol-4-yl)-2,6-dimethylimidazo[1,2-a]pyridine-3-carboxamide] |
| 0.1 µM | Cc1cc(OCc2c(F)cccc2F)c2nc(C)c(C(=O)Nc3cnn(CC(F)(F)F)c3)n2c1 [Example 85] |
| 10 µM | Cc1nc2c(OCc3c(F)cccc3F)cccn2c1C(=O)Nc1cnn(CCOC(N)=O)c1 [Example 138, 2-{4-[({8-[(2,6-Difluorobenzyl)oxy]-2-methylimidazo[1,2-a]pyridin-3-yl}carbonyl)amino]-1H-pyrazol-1-yl}ethyl carbamate] |
| 0.1 µM | Cc1nc2c(OCc3c(F)cccc3F)cccn2c1C(=O)Nc1ccnc2ccc(Cl)cc12 [Example 71] |
| 3.0 µM | Cc1nc2c(OCc3c(F)cccc3F)cccn2c1C(=O)Nc1cc[nH]n1 [Example 19] |
| 0.3 µM | CCOc1cc(NC(=O)c2c(C)nc3c(OCc4c(F)cccc4F)cccn23)cc(C)n1 [Example 102] |
| 3.0 µM | Cc1nc2c(OCc3c(F)cccc3F)cc(Cl)cn2c1C(=O)Nc1ccc(N2CCNCC2)c(F)c1 [Example 109, 6-chloro-8-[(2,6-difluorobenzyl)oxy]-N-[3-fluoro-4-(piperazin-1-yl)phenyl]-2-methylimidazo[1,2-a]pyridine-3-carboxamide] |
| 1.0 µM | Cc1noc(C)c1NC(=O)c1c(C)nc2c(OCc3c(F)cccc3F)cc(Cl)cn12 [Example 39, 6-Chloro-8-[(2,6-difluorobenzyl)oxy]-N-(3,5-dimethyl-1,2-oxazol-4-yl)-2-methylimidazo[1,2-a]pyridine-3-carboxamide] |
| 0.3 µM | Cc1n[nH]c(C)c1NC(=O)c1c(C)nc2c(OCc3c(F)cccc3F)cc(F)cn12 [Example 48, 8-[(2,6-Difluorobenzyl)oxy]-N-(3,5-dimethyl-1H-pyrazol-4-yl)-6-fluoro-2-methylimidazo[1,2-a]pyridine-3-carboxamide] |
| 1.0 µM | Cc1nc2c(OCc3c(F)cccc3F)cccn2c1C(=O)Nc1cccc2ccc(O)cc12 [Example 74] |
| 0.3 µM | Cc1cc(OCc2c(F)cccc2F)c2nc(C)c(C(=O)Nc3ccccc3CN)n2c1 [Example 112, N-[2-(Aminomethyl)phenyl]-8-[(2,6-difluorobenzyl)oxy]-2,6-dimethylimidazo[1,2-a]pyridine-3-carboxamide] |
| 3.0 µM | Cc1cc(OCc2c(F)cccc2F)c2nc(C)c(C(=O)Nc3cccc(NS(C)(=O)=O)c3)n2c1 [Example 153, 8-[(2,6-Difluorobenzyl)oxy]-2,6-dimethyl-N-{3-[(methylsulphonyl)amino]phenyl}imidazo[1,2-a]pyridine-3-carboxamide] |
| 1.0 µM | Cc1ccncc1NC(=O)c1c(C)nc2c(OCc3c(F)cccc3F)cccn12 [Example 93] |
| 1.0 µM | Cc1nc2c(OCc3c(F)cccc3F)cccn2c1C(=O)Nc1ccncc1C(F)(F)F [Example 123, 8-[(2,6-difluorobenzyl)oxy]-2-methyl-N-[3-(trifluoromethyl)pyridin-4-yl)imidazo[1,2-a]pyridine-3-carboxamide trifluoroacetate] |
| 1.43 µM | Cc1nc2c(OCc3c(F)cccc3F)cccn2c1C(=O)Nc1cnn(CCO)c1 [Example 22, 8-[(2,6-Difluorobenzyl)oxy]-N-[1-(2-hydroxyethyl)-1H-pyrazol-4-yl]-2-methylimidazo[1,2-a]pyridine-3-carboxamide] |
| 0.1 µM | Cc1n[nH]c(C)c1NC(=O)c1c(C)nc2c(OCC3CCCCC3)cccn12 [Example 49, 8-(cyclohexylmethoxy)-N-(3,5-dimethyl-1H-pyrazol-4-yl)-2-methylimidazo[1,2-a]pyridine-3-carboxamide] |
| 0.53 µM | Cc1n[nH]c(C)c1NC(=O)c1c(C)nc2c(OCc3c(F)cccc3F)cccn12 [Example 29, 8-[(2,6-difluorobenzyl)oxy]-N-(3,5-dimethyl-1H-pyrazol-4-yl)-2-methylimidazo[1,2-a]pyridine-3-carboxamide] |
